From the supplement of paper PMC4932681

How the values were obtained:
BT-474 Tam1 [1] = assay: drug sensitivity score (DSS) (DSS (dimensionless)); higher = more sensitive; extreme values may be limits of the assay; settings: 4-OH-tamoxifen in medium 1 µM; 72 h
Method in brief: (§1)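 Breast cancer cell lines and their resistant derivatives were seeded into 384-well plates containing library drugs at five concentrations across a 10 000-fold range, with resistant lines kept in medium with 1 μM of the selecting drug. After 72 h at 37 °C, CellTiter-Glo viability was read on a PHERAstar and normalised to vehicle-only and positive controls. Logistic dose–response fits in the Breeze pipeline gave drug sensitivity score, relative IC50 (curve midpoint) and top-dose inhibition.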

BT-474 Tam2 [2] = assay: as above; settings: 4-OH-tamoxifen in medium 1 µM; 72 h
Method in brief: as §1

BT-474 [3] = assay: as above; settings: 72 h
Method in brief: as §1

MCF-7 Tam1 = assay: as above; settings: 4-OH-tamoxifen in medium 1 µM; 72 h
Method in brief: as §1

MCF-7 [4] = assay: as above; settings: 72 h
Method in brief: as §1

T-47D Tam1 [5] = assay: as above; settings: 4-OH-tamoxifen in medium 1 µM; 72 h
Method in brief: as §1

T-47D Tam2 [6] = assay: as above; settings: 4-OH-tamoxifen in medium 1 µM; 72 h
Method in brief: as §1

T-47D [7] = assay: as above; settings: 72 h
Method in brief: as §1

ZR-75-1 Tam1 [8] = assay: as above; settings: 4-OH-tamoxifen in medium 1 µM; 72 h
Method in brief: as §1

ZR-75-1 Tam2 [9] = assay: as above; settings: 4-OH-tamoxifen in medium 1 µM; 72 h
Method in brief: as §1

ZR-75-1 [10] = assay: as above; settings: 72 h
Method in brief: as §1

BT-474 Tam1 [11] = assay: relative IC50 (midpoint of fitted logistic curve, plateau may be below 50% inhibition; CellTiter-Glo viability); higher = less potent; settings: 4-OH-tamoxifen in medium 1 µM; 72 h
Method in brief: as §1

BT-474 Tam2 [12] = assay: as above; settings: 4-OH-tamoxifen in medium 1 µM; 72 h
Method in brief: as §1

BT-474 [13] = assay: as above; settings: 72 h
Method in brief: as §1

MCF-7 [14] = assay: as above; settings: 72 h
Method in brief: as §1

T-47D Tam1 [15] = assay: as above; settings: 4-OH-tamoxifen in medium 1 µM; 72 h
Method in brief: as §1

T-47D Tam2 [16] = assay: as above; settings: 4-OH-tamoxifen in medium 1 µM; 72 h
Method in brief: as §1

T-47D [17] = assay: as above; settings: 72 h
Method in brief: as §1

ZR-75-1 Tam1 [18] = assay: as above; settings: 4-OH-tamoxifen in medium 1 µM; 72 h
Method in brief: as §1

ZR-75-1 Tam2 [19] = assay: as above; settings: 4-OH-tamoxifen in medium 1 µM; 72 h
Method in brief: as §1

ZR-75-1 [20] = assay: as above; settings: 72 h
Method in brief: as §1

Row | Compound | drug sensitivity score (BT-474 Tam1 [1]) | drug sensitivity score (BT-474 Tam2 [2]) | drug sensitivity score (BT-474 [3]; 4-OH-tamoxifen in medium 0 µM) | drug sensitivity score (BT-474 [3]; 4-OH-tamoxifen in medium 1 µM) | drug sensitivity score (MCF-7 Tam1) | drug sensitivity score (MCF-7 [4]; 4-OH-tamoxifen in medium 0 µM) | drug sensitivity score (MCF-7 [4]; 4-OH-tamoxifen in medium 1 µM) | drug sensitivity score (T-47D Tam1 [5]) | drug sensitivity score (T-47D Tam2 [6]) | drug sensitivity score (T-47D [7]; 4-OH-tamoxifen in medium 0 µM) | drug sensitivity score (T-47D [7]; 4-OH-tamoxifen in medium 1 µM) | drug sensitivity score (ZR-75-1 Tam1 [8]) | drug sensitivity score (ZR-75-1 Tam2 [9]) | drug sensitivity score (ZR-75-1 [10]; 4-OH-tamoxifen in medium 0 µM) | drug sensitivity score (ZR-75-1 [10]; 4-OH-tamoxifen in medium 1 µM) | relative IC50 (BT-474 Tam1 [11]) | relative IC50 (BT-474 Tam2 [12]) | relative IC50 (BT-474 [13]; 4-OH-tamoxifen in medium 0 µM) | relative IC50 (BT-474 [13]; 4-OH-tamoxifen in medium 1 µM) | relative IC50 (MCF-7 [14]; 4-OH-tamoxifen in medium 0 µM) | relative IC50 (MCF-7 [14]; 4-OH-tamoxifen in medium 1 µM) | relative IC50 (T-47D Tam1 [15]) | relative IC50 (T-47D Tam2 [16]) | relative IC50 (T-47D [17]; 4-OH-tamoxifen in medium 0 µM) | relative IC50 (T-47D [17]; 4-OH-tamoxifen in medium 1 µM) | relative IC50 (ZR-75-1 Tam1 [18]) | relative IC50 (ZR-75-1 Tam2 [19]) | relative IC50 (ZR-75-1 [20]; 4-OH-tamoxifen in medium 0 µM) | relative IC50 (ZR-75-1 [20]; 4-OH-tamoxifen in medium 1 µM)
1 | CN(C)C[C@@H]1CCn2cc(c3ccccc32)C2=C(C(=O)NC2=O)c2cn(c3ccccc23)CCO1 | 9.22 | 6.47 | 4.1 | 8.42 | 1.31 | 7.13 | 4.11 | 6.85 | 4.71 | 6.79 | 6.1 | 3.13 | 4.71 | 4.14 | 6.47 | 1590 nM | 2610 nM | 3260 nM | 1860 nM | 2350 nM | 2940 nM | 1430 nM | 2530 nM | 1540 nM | 2780 nM | 1400 nM | 942 nM | 1320 nM | 1560 nM
2 | Cn1cc(CNCC2CCN(c3ncc(C(=O)NO)cn3)CC2)c2ccccc21 | 21.3 | 20.9 | 17.3 | 24.5 | 1.39 | 16.4 | 15.2 | 13.5 | 8.78 | 15.4 | 21.5 | 10 | 9.02 | 9.45 | 5.44 | 14.5 nM | 14.9 nM | 21.6 nM | 8.56 nM | 25.4 nM | 34.7 nM | 43.9 nM | 91.3 nM | 43.5 nM | 13.2 nM | 6.19 nM | 20.3 nM | 17.8 nM | 30 nM
3 | N#Cc1ccc(COC[C@H]2O[C@@H](n3c(NCc4ccc(Cl)c(Cl)c4)nc4c(N)ncnc43)[C@H](O)[C@@H]2O)cc1 | 3.95 | 3.17 | 0.615 | 4.11 | 0.584 | 1.74 | 2.54 | 5.15 | 2.46 | 1.88 | 1.02 | 2.54 | 2.56 | 4.24 | 4.03 | 1920 nM | 1730 nM | – | 2750 nM | 4190 nM | 3250 nM | 1170 nM | 2000 nM | 3590 nM | – | 3000 nM | 3350 nM | 2070 nM | 1870 nM
4 | O=C(NC[C@H](O)CO)c1ccncc1Nc1ccc(I)cc1F | 0.041 | 0 | 0.702 | 3.92 | 0.0844 | 1.94 | 1.22 | 0 | 2.47 | 0 | 0 | 0 | 0 | 0 | 0 | – | > 10000 nM | – | 1850 nM | 2770 nM | – | > 10000 nM | 1940 nM | – | > 10000 nM | > 10000 nM | > 10000 nM | > 10000 nM | –
5 | COc1cc(Nc2ncc3c(n2)-c2ccc(Cl)cc2C(c2c(F)cccc2OC)=NC3)ccc1C(=O)O [Alisertib (MLN8237)] | 0.0274 | 0 | 0.464 | 1.48 | 0.522 | 0.284 | 0 | 3.59 | 4.18 | 3.12 | 0.856 | 0 | 0 | 0 | 0 | – | > 10000 nM | – | 3450 nM | – | – | 1050 nM | 821 nM | – | – | > 10000 nM | > 10000 nM | > 10000 nM | –
6 | COc1c(C)cnc(Cn2cnc3c(Cl)nc(N)nc32)c1C [BIIB021] | 22 | 22 | 14.6 | 22.8 | 2.87 | 13.9 | 7.58 | 9.86 | 8.67 | 11.6 | 9.03 | 5.21 | 5.51 | 4.41 | 4.44 | 35.4 nM | 56.9 nM | 75.3 nM | 49 nM | 110 nM | 409 nM | 175 nM | 284 nM | 346 nM | 359 nM | 557 nM | 499 nM | 477 nM | 698 nM
7 | NC1(c2ccc(-c3nc4ccn5c(=O)[nH]nc5c4cc3-c3ccccc3)cc2)CCC1 [MK-2206] | 4.04 | 0.553 | 1.68 | 2.54 | 2.56 | 1.67 | 4.73 | 5.11 | 5.54 | 5.76 | 2.9 | 7.57 | 7.96 | 6.86 | 7.22 | 170 nM | – | – | 335 nM | 315 nM | 119 nM | 101 nM | 111 nM | 114 nM | 177 nM | 68.5 nM | 78.2 nM | 73.6 nM | 54.6 nM
8 | OC[C@H]1O[C@@H](n2cnc3c2N=CNC[C@H]3O)C[C@@H]1O [Pentostatin] | 1.97 | 0.106 | 0.324 | 0.0318 | 0.721 | 4.26 | 2.79 | 4.83 | 3.19 | 3.58 | 2.45 | 2.62 | 3.72 | 4.39 | 3.83 | 2110 nM | – | – | – | 1540 nM | 1320 nM | 1320 nM | 1450 nM | 1900 nM | – | 2930 nM | 1310 nM | 1580 nM | 1140 nM
9 | COc1cc([C@@H]2c3cc4c(cc3[C@@H](O[C@@H]3O[C@@H]5CO[C@@H](c6cccs6)O[C@H]5[C@H](O)[C@H]3O)[C@H]3COC(=O)[C@H]23)OCO4)cc(OC)c1O [Teniposide] | 3.14 | 0.0097 | 4.07 | 6.48 | 0.273 | 4.14 | 2.91 | 8.66 | 4.73 | 9.21 | 4.79 | 3.15 | 5.1 | 4.91 | 3.3 | 3450 nM | – | 2130 nM | 2230 nM | 2130 nM | – | 995 nM | 1110 nM | 306 nM | 697 nM | 1600 nM | 737 nM | 703 nM | 1070 nM
